# Values quoted from earlier work, collected in article PMC10323144, “Garbage in, garbage out: how reliable training data improved a virtual screening approach against SARS-CoV-2 MPro” (Frontiers in Pharmacology, 2023).
# System: MPro
# Conditions: compiled from peer-reviewed sources (287 compounds) ref the 18 original articles; cited from earlier work
row,Structure (SMILES),Class (MPro activity class)
1,CCC(C)SSc1ncc[nH]1 (stereo not drawn) [PX-12],"0 (compounds with IC50 > 20 μM, percentage inhibition <80% at 20 µM or 50 μM, or percentage enzyme inhibition <50% at 10 µM were labelled as INACTIVE)"
2,Cc1cnc(C(=O)N[C@H]2CCCCC/C=C\[C@@H]3C[C@@]3(C(=O)NS(=O)(=O)C3CC3)NC(=O)[C@@H]3C[C@@H](Oc4nc5ccccc5c5ccccc45)CN3C2=O)cn1 [Paritaprevir],"0 (compounds with IC50 > 20 μM, percentage inhibition <80% at 20 µM or 50 μM, or percentage enzyme inhibition <50% at 10 µM were labelled as INACTIVE)"
3,CCC(CC)C(NC(C)=O)C1C(N=C(N)N)CC(C(=O)O)C1O (stereo not drawn) [Peramivir],"0 (compounds with IC50 > 20 μM, percentage inhibition <80% at 20 µM or 50 μM, or percentage enzyme inhibition <50% at 10 µM were labelled as INACTIVE)"
4,COc1cc([C@H]2OC[C@H]3[C@@H]2CO[C@H]3c2ccc(OC)c(OC)c2)ccc1O [Phillygenin],"0 (compounds with IC50 > 20 μM, percentage inhibition <80% at 20 µM or 50 μM, or percentage enzyme inhibition <50% at 10 µM were labelled as INACTIVE)"
5,COC(=O)N[C@H](C(=O)N1CCC[C@H]1c1nc2cc([C@H]3CC[C@H](c4cc5nc([C@@H]6CCCN6C(=O)[C@@H](NC(=O)OC)[C@@H](C)OC)[nH]c5cc4F)N3c3cc(F)c(N4CCC(c5ccc(F)cc5)CC4)c(F)c3)c(F)cc2[nH]1)[C@@H](C)OC [Pibrentasvir],"0 (compounds with IC50 > 20 μM, percentage inhibition <80% at 20 µM or 50 μM, or percentage enzyme inhibition <50% at 10 µM were labelled as INACTIVE)"
6,O=C(O)[C@H]1C2CCC(CC2)[C@@H]1Nc1nc(-c2c[nH]c3ncc(F)cc23)ncc1F [Pimodivir],"0 (compounds with IC50 > 20 μM, percentage inhibition <80% at 20 µM or 50 μM, or percentage enzyme inhibition <50% at 10 µM were labelled as INACTIVE)"
7,Cc1cc(CCCOc2c(C)cc(-c3noc(C(F)(F)F)n3)cc2C)on1 [Pleconaril],"0 (compounds with IC50 > 20 μM, percentage inhibition <80% at 20 µM or 50 μM, or percentage enzyme inhibition <50% at 10 µM were labelled as INACTIVE)"
8,CC[C@@H]([C@H](C)O)n1ncn(-c2ccc(N3CCN(c4ccc(OC[C@@H]5CO[C@@](Cn6cncn6)(c6ccc(F)cc6F)C5)cc4)CC3)cc2)c1=O [Posaconazole],"0 (compounds with IC50 > 20 μM, percentage inhibition <80% at 20 µM or 50 μM, or percentage enzyme inhibition <50% at 10 µM were labelled as INACTIVE)"
9,O=C1c2ccccc2NC(c2cc(Br)ccc2O)N1N=Cc1cc(Br)ccc1O (stereo not drawn) [QZ1],"0 (compounds with IC50 > 20 μM, percentage inhibition <80% at 20 µM or 50 μM, or percentage enzyme inhibition <50% at 10 µM were labelled as INACTIVE)"
10,O=C1c2ccccc2NC(c2cc(Cl)ccc2O)N1N=Cc1cc(Cl)ccc1O (stereo not drawn) [QZ2],1 (Compounds with IC50 < 10 µM or with a percentage of enzyme inhibition >50% at 10 µM were labelled as ACTIVE)
11,COc1cc(Br)cc(C=NN2C(=O)c3ccccc3NC2c2cc(Br)cc(OC)c2O)c1O (stereo not drawn) [QZ3],"0 (compounds with IC50 > 20 μM, percentage inhibition <80% at 20 µM or 50 μM, or percentage enzyme inhibition <50% at 10 µM were labelled as INACTIVE)"
12,COc1ccc(O)c(C=NN2C(=O)c3ccccc3NC2c2cc(OC)ccc2O)c1 (stereo not drawn) [QZ4],1 (Compounds with IC50 < 10 µM or with a percentage of enzyme inhibition >50% at 10 µM were labelled as ACTIVE)
13,O=C1c2ccccc2NC(c2cc([N+](=O)[O-])ccc2O)N1N=Cc1cc([N+](=O)[O-])ccc1O (stereo not drawn) [QZ5],"0 (compounds with IC50 > 20 μM, percentage inhibition <80% at 20 µM or 50 μM, or percentage enzyme inhibition <50% at 10 µM were labelled as INACTIVE)"
14,O=c1c(O)c(-c2ccc(O)c(O)c2)oc2cc(O)c(O)c(O)c12 [Quercetagetin],1 (Compounds with IC50 < 10 µM or with a percentage of enzyme inhibition >50% at 10 µM were labelled as ACTIVE)
15,O=C(NC(Cc1cc(=O)[nH]c2ccccc12)C(=O)O)c1ccc(Cl)cc1 (stereo not drawn) [REBAMIPIDE],"0 (compounds with IC50 > 20 μM, percentage inhibition <80% at 20 µM or 50 μM, or percentage enzyme inhibition <50% at 10 µM were labelled as INACTIVE)"
16,CN(C)C(=O)c1cc2cnc(Nc3ccc(N4CCNCC4)cn3)nc2n1C1CCCC1 [RIBOCICLIB],"0 (compounds with IC50 > 20 μM, percentage inhibition <80% at 20 µM or 50 μM, or percentage enzyme inhibition <50% at 10 µM were labelled as INACTIVE)"
17,Cc1cc2nc3c(=O)[nH]c(=O)nc-3n(C[C@H](O)[C@H](O)[C@H](O)CO)c2cc1C [RIBOFLAVIN],"0 (compounds with IC50 > 20 μM, percentage inhibition <80% at 20 µM or 50 μM, or percentage enzyme inhibition <50% at 10 µM were labelled as INACTIVE)"
18,CC(C)(C(=O)NCC(F)(F)C(F)(F)F)C(=O)N[C@@H]1C(=O)Nc2ccccc2-c2ccccc21 [RO4929097],"0 (compounds with IC50 > 20 μM, percentage inhibition <80% at 20 µM or 50 μM, or percentage enzyme inhibition <50% at 10 µM were labelled as INACTIVE)"
19,Cc1nnc(C(=O)NC(C)(C)c2nc(C(=O)NCc3ccc(F)cc3)c(O)c(=O)n2C)o1 [Raltegravir],"0 (compounds with IC50 > 20 μM, percentage inhibition <80% at 20 µM or 50 μM, or percentage enzyme inhibition <50% at 10 µM were labelled as INACTIVE)"
20,NC(=O)c1ncn([C@@H]2O[C@H](CO)[C@@H](O)[C@H]2O)n1 [Ribavirin],"0 (compounds with IC50 > 20 μM, percentage inhibition <80% at 20 µM or 50 μM, or percentage enzyme inhibition <50% at 10 µM were labelled as INACTIVE)"
21,NC[C@H]1O[C@H](O[C@H]2[C@H](O[C@@H]3O[C@H](CO)[C@@H](O)[C@H]3O)[C@@H](O)[C@H](N)C[C@@H]2N)[C@H](N)[C@@H](O)[C@@H]1O [Ribostamycin],"0 (compounds with IC50 > 20 μM, percentage inhibition <80% at 20 µM or 50 μM, or percentage enzyme inhibition <50% at 10 µM were labelled as INACTIVE)"
22,CC(C)c1nc(CN(C)C(=O)N[C@H](C(=O)N[C@@H](Cc2ccccc2)C[C@H](O)[C@H](Cc2ccccc2)NC(=O)OCc2cncs2)C(C)C)cs1 [Ritonavir],"0 (compounds with IC50 > 20 μM, percentage inhibition <80% at 20 µM or 50 μM, or percentage enzyme inhibition <50% at 10 µM were labelled as INACTIVE)"
23,CCOC(=O)/C=C/[C@H](C[C@@H]1CCNC1=O)NC(=O)[C@@H](CC(=O)[C@@H](NC(=O)c1cc(C)on1)C(C)C)Cc1ccc(F)cc1 [Rupintrivir],"0 (compounds with IC50 > 20 μM, percentage inhibition <80% at 20 µM or 50 μM, or percentage enzyme inhibition <50% at 10 µM were labelled as INACTIVE)"
24,N#CC[C@H](C1CCCC1)n1cc(-c2ncnc3[nH]ccc23)cn1 [Ruxolitinib],"0 (compounds with IC50 > 20 μM, percentage inhibition <80% at 20 µM or 50 μM, or percentage enzyme inhibition <50% at 10 µM were labelled as INACTIVE)"
25,O=S(=O)(CC1CS1)c1ccc(Oc2ccccc2)cc1 (stereo not drawn) [SB-3CT],"0 (compounds with IC50 > 20 μM, percentage inhibition <80% at 20 µM or 50 μM, or percentage enzyme inhibition <50% at 10 µM were labelled as INACTIVE)"
26,CC1(C)CN(C(=O)c2ccc(-c3cccc4nc(NC(=O)C5CC5)nn34)cc2)C1 [SOLCITINIB],"0 (compounds with IC50 > 20 μM, percentage inhibition <80% at 20 µM or 50 μM, or percentage enzyme inhibition <50% at 10 µM were labelled as INACTIVE)"
27,O=C(CCl)N1CCN(Cc2cc(Cl)ccc2CNC(=O)N2CCOCC2)CC1 [STU-CHA-6cae54d3-1],1 (Compounds with IC50 < 10 µM or with a percentage of enzyme inhibition >50% at 10 µM were labelled as ACTIVE)
